Measurements as given in patent publication US12459951B2, “Compounds that interact with RAS superfamily proteins for treatment of cancers, inflammatory diseases, rasopathies, and fibrotic disease” (SHY Therapeutics, LLC, priority 2022, dated 2025).

Assays:
Akt phosphorylation = assay: Akt Phosphorylation Assay (western blot), Panc-1; format: cell-based, human; conditions: at 10 μM, * = activation
Method in brief: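 Panc-1 (KRas G12D) cells were treated with compound at 10 μM final (0.3% DMSO) for 6 h at 37 °C, or with serial dilutions for IC50. Cells were either serum-starved overnight in 0.5% FBS and then stimulated with 1.5 ng/ml EGF for 15 min, or kept in 10% FBS without stimulation. Akt Ser473 phosphorylation in lysates was read by western blot.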

TNF-alpha = TNF-alpha Quantification Assay (ELISA), LPS-stimulated RAW 264.7; format: cell-based; conditions: Mus musculus, RAW264.7; at 10 μM; read-out: TNFα: % inh.
IL6 = assay: IL-6 Quantification Assay (ELISA), LPS-stimulated RAW 264.7; format: cell-based; set-up: inhibition: dose or concentration left out as unconfirmed; conditions: Mus musculus, RAW264.7; read-out: IL-6: % inh.
Rac-1 = target: T1, Rac-1 (Homo sapiens, UniProt P63000); assay: Ras GTP Binding Domain Inhibition Assay (Ras Superfamily Assay); conditions: read-out: Rac-1: % inh.
T1 construct: made in house
Method in brief: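 Ni-plate capture of His-tagged protein (10-30 μg/mL, o/n 4° C); cpd 20 μM or dilution series, 1% DMSO, 3 h RT ± Sos 556-1049 last h; 100 nM Cy-labelled GTP 45 min RT; 3× wash; fluorescence read.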

Row | inhibition at 20 µM (Rac-1) | Compound | % inh of Akt phosphorylation in Panc-1 (Akt phosphorylation) | inhibition at 10 µM (TNF-alpha) | inhibition (IL6)
1 | 76 to 100% | Cc1c(-c2ccn(C)n2)cn2nc(-c3nccn3C)nc(Nc3cc(-c4ccccc4)[nH]n3)c12 [Compound 263, 5-Methyl-2-(1-methyl-1H-imidazol-2-yl)-6-(1-methyl-1H-pyrazol-3-yl)-N-(5-phenyl-1H-pyrazol-3-yl)pyrrolo[2,1-f][1,2,4]triazin-4-amine] | D* (85-100% activation) | 50 to 74% | 75 to 100%
2 | 76 to 100% | Cc1c(-c2ccn(C)n2)cn2nc(-c3nccn3C)nc(Nc3cc(-c4cccnc4)[nH]n3)c12 [Compound 264, 5-Methyl-2-(1-methyl-1H-imidazol-2-yl)-6-(1-methyl-1H-pyrazol-3-yl)-N-(5-(pyridin-3-yl)-1H-pyrazol-3-yl)pyrrolo[2,1-f][1,2,4]triazin-4-amine] | D* (85-100% activation) | 25 to 49% | 75 to 100%
3 | 76 to 100% | Cc1c(-c2ccn(C)n2)cn2nc(-c3nccn3C)nc(Nc3cc(-c4ccccn4)[nH]n3)c12 [Compound 265, 5-Methyl-2-(1-methyl-1H-imidazol-2-yl)-6-(1-methyl-1H-pyrazol-3-yl)-N-(5-(pyridin-2-yl)-1H-pyrazol-3-yl)pyrrolo[2,1-f][1,2,4]triazin-4-amine] | D* (85-100% activation) | 25 to 49% | 75 to 100%
4 | 76 to 100% | Cc1c(-c2ccn(C)n2)cn2nc(-c3nccn3C)nc(Nc3cc(-c4ccncc4)[nH]n3)c12 [Compound 266, 5-Methyl-2-(1-methyl-1H-imidazol-2-yl)-6-(1-methyl-1H-pyrazol-3-yl)-N-(5-(pyridin-4-yl)-1H-pyrazol-3-yl)pyrrolo[2,1-f][1,2,4]triazin-4-amine] | D* (85-100% activation) | 0% | 25 to 49%
5 | 76 to 100% | Cc1[nH]nc(Nc2nc(-c3nccn3C)nn3cc(-c4ccn(C)n4)c(C)c23)c1C [Compound 267, N-(4,5-Dimethyl-1H-pyrazol-3-yl)-5-methyl-2-(1-methyl-1H-imidazol-2-yl)-6-(1-methyl-1H-pyrazol-3-yl)pyrrolo[2,1-f][1,2,4]triazin-4-amine] | D* (85-100% activation) | 1 to 24% | 50 to 74%
6 | 76 to 100% | Cc1c(-c2ccn(C)n2)cn2nc(-c3nccn3C)nc(Nc3cc(C(C)C)[nH]n3)c12 [Compound 268, N-(5-Isopropyl-1H-pyrazol-3-yl)-5-methyl-2-(1-methyl-1H-imidazol-2-yl)-6-(1-methyl-1H-pyrazol-3-yl)pyrrolo[2,1-f][1,2,4]triazin-4-amine] | D* (85-100% activation) | 25 to 49% | 75 to 100%
7 | 26 to 49% | COc1cccc(-c2cn3nc(-c4nccn4C)nc(N[C@H]4C[C@@H](OC)C4)c3c2-c2ccccc2)c1C [Compound 269, 6-(3-Methoxy-2-methylphenyl)-N-((1s,3s)-3-methoxycyclobutyl)-2-(1-methyl-1H-imidazol-2-yl)-5-phenylpyrrolo[2,1-f][1,2,4]triazin-4-amine] | C (50-84% inhibition) | 75 to 100% | 75 to 100%
8 | 1 to 25% | COc1ccc(F)c(-c2cn3nc(-c4nccn4C)nc(N[C@H]4C[C@H](OC)C4)c3c2-c2ccccc2)c1F [Compound 273, 6-(2,6-Difluoro-3-methoxyphenyl)-N-((1r,3r)-3-methoxycyclobutyl)-2-(1-methyl-1H-imidazol-2-yl)-5-phenylpyrrolo[2,1-f][1,2,4]triazin-4-amine] | D (85-100% inhibition) | 75 to 100% | 75 to 100%
